Results reported in patent US20260060993A1, “COMPOSITION FOR IMPROVEMENT OF INTESTINAL FLORA” (MEIJI CO., LTD., priority 2022, published 2026).
“Also recorded” adds a separate entry of the source.

Legend:
Bifidobacterium bacteria = experiment: Human fecal culture system, relative abundance by 16S V3-V4 amplicon sequencing (Test Example 1); assay type: cell-based; details: 1% substance; for Change in relative abundance of Bifidobacterium bacteria: feces of two healthy adults, 2 days at 37° C., anaerobic, pH 6.5, versus control without substance
Experimental: (§1) Each substance to be evaluated was added at a concentration of 1% to a diluted fecal solution in which feces of healthy adult origin were suspended in the GAM Semisolid without Dextrose “Nissui” (Nissui Pharmaceutical Co., Ltd.) for GAM glycolysis from which agar was removed by filtration. Fecal materials of two individuals were each tested without mixing them. The medium used for the test was allowed to stand in an anaerobic glove box at least overnight before use. For the culture, a microbioreactor BioLector Pro […]-Labs) and a plate with microfluidic channels were used, and the culture was performed for 2 days at 37° C. and 600 rpm in an anaerobic environment while maintaining a constant pH of 6.5 with 1.5 N HCl and sodium hydroxide during the culture. The prebiotic abilities of the added substances were evaluated by comparing the bacterial flora obtained after the culture with that obtained under the control condition in which the substances to be evaluated were not added. DNA was extracted and purified from the diluted fecal solutions after the culture by using Maxwell RSC PureFood GMO & Authentication Kit (Promega), and amplicon sequencing of the V3-V4 region was performed by using MiSeq (Illumina). The resulting fastq files were analyzed with QIIME2 (https://quime2.org/) to calculate the relative abundance of each intestinal bacterium.

Parabacteroides bacteria [1] = experiment: as above; assay type: cell-based; details: 1% substance, feces of two healthy adults, 2 days at 37° C., anaerobic, pH 6.5, versus control without substance
Experimental: as §1

bifidobacteria = details: known from Non-patent documents 7 and 8; cited from earlier work
Parabacteroides bacteria [2] = experiment: Human fecal culture, 60 subjects, genus-level analysis (Test Example 3); assay type: cell-based; details: 0.25% substance, n=60 fecal samples, 1 day at 37° C., anaerobic, versus distilled water; Wilcoxon's signed rank test, p=3.59×10^−8
Experimental: Galactosylkojibiose (trisaccharide fraction) was added at a concentration of 0.25% to a diluted fecal solution in which feces of healthy adult origin were suspended in the GAM Semisolid without Dextrose “Nissui” (Nissui Pharmaceutical Co., Ltd.) from which agar was removed by filtration (n=60). The galactosylkojibiose (trisaccharide fraction) was the fractionated and purified product containing 4′-galactosylkojibiose as the main ingredient prepared in Production Example 2. The fecal samples for 60 subjects were aliquoted under refrigerated conditions immediately after excretion and frozen at −80° C. until use. The test was performed for each of the fecal samples without mixing them. The medium used for the test was allowed to stand in an anaerobic glove box at least overnight before use. For the culture, a 96-well deepwell plate was used, and the culture was performed for 1 day at 37° C. in an anaerobic environment. The prebiotic ability of the added evaluation substance was evaluated by comparing the bacterial flora observed after the culture with that obtained under the control condition in which distilled water was added instead of the evaluation substance. […] The resulting fastq files were analyzed with QIIME2 (https://qiime2.org/) to calculate the relative abundance of each intestinal bacterium.

[3] = tested on: Parabacteroides distasonis; experiment: Human fecal culture, 60 subjects, species-level analysis (Test Example 3); assay type: cell-based; details: 0.25% substance, n=60 fecal samples, 1 day at 37° C., anaerobic, versus distilled water; Wilcoxon's signed rank order test, p=2.07×10^−8
Experimental: Galactosylkojibiose (trisaccharide fraction) was added at a concentration of 0.25% to a diluted fecal solution in which feces of healthy adult origin were suspended in the GAM Semisolid without Dextrose “Nissui” (Nissui Pharmaceutical Co., Ltd.) from which agar was removed by filtration (n=60). The galactosylkojibiose (trisaccharide fraction) was the fractionated and purified product containing 4'-galactosylkojibiose as the main ingredient prepared in Production Example 2. The fecal samples for 60 subjects were aliquoted under refrigerated conditions immediately after excretion and frozen at -80° C. until use. The test was performed for each of the fecal samples without mixing them. The medium used for the test was allowed to stand in an anaerobic glove box at least overnight before use. […] The prebiotic ability of the added evaluation substance was evaluated by comparing the bacterial flora observed after the culture with that obtained under the control condition in which distilled water was added instead of the evaluation substance. […] The resulting fastq files were analyzed with QIIME2 (https://qiime2.org/) to calculate the relative abundance of each intestinal bacterium. […] The resulting fastq files were analyzed with QIIME2 (https://qiime2.org/), and confirmed that it was classified as that of […] at the bacterial species level. […]

lactase = biological target: T1, lactase (Kluyveromyces lactis, UniProt P00723); experiment: Lactase treatment of the trisaccharide fraction, LCMS analysis; assay type: biochemical; details: 10% in phosphate-citrate buffer pH 6.5, 0.1% lactase (GODO-YNL), 40° C.
T1 construct: purchased Godo Shusei Co., Ltd. GODO-YNL
T1 sequence (P00723 whole entry): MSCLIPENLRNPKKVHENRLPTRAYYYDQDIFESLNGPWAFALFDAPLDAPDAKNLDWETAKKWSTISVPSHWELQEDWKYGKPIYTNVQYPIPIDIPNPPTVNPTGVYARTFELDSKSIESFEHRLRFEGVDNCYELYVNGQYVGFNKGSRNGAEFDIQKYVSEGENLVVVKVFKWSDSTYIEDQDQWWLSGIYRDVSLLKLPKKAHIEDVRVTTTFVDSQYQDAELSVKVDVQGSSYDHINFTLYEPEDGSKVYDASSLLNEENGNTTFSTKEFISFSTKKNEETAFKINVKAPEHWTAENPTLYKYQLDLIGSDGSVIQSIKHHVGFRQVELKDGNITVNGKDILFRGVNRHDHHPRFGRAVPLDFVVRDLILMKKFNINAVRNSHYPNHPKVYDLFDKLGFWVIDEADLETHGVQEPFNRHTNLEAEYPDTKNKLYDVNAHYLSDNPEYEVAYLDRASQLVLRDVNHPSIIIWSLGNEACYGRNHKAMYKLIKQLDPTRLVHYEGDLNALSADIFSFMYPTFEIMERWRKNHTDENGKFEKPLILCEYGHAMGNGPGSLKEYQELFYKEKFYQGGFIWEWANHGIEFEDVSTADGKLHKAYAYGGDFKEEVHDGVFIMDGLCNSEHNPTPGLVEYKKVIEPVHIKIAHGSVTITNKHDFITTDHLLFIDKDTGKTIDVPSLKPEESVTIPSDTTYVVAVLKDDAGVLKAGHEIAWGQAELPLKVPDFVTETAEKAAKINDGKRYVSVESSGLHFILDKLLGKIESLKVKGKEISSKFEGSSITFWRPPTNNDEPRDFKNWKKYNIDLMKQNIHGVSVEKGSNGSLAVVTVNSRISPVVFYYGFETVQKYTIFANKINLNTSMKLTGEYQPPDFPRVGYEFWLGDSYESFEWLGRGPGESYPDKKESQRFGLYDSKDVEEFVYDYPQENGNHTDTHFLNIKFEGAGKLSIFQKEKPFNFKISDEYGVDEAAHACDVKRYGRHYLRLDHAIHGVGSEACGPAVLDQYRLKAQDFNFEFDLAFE
Experimental: The purified trisaccharide fraction was lyophilized and dissolved in a phosphate-citrate buffer, pH 6.5 at a concentration of 10%. Then, 0.1% of lactase (product name GODO-YNL, Godo Shusei Co., Ltd.) was added to the solution, and the enzymatic reaction was allowed at 40° C.

For OCC1OC(O)C(O[C@H]2OC(CO)[C@@H](O)[C@H](O)C2O)[C@@H](O)[C@@H]1O (stereo partly drawn) [kojibiose], the “Change in relative abundance of Bifidobacterium bacteria” value (Bifidobacterium bacteria) is listed as “increased”, the “Change in relative abundance of Parabacteroides bacteria” value (Parabacteroides bacteria [1]) is listed as “increase” and the “Effect on growth of bifidobacteria” value (bifidobacteria) is listed as “growth-promoting effect”.

For OCC1O[C@H](OC2C(O)[C@H](O[C@@H]3OC(CO)[C@H](O)C(O)C3O)C(CO)O[C@H]2O)C(O)C(O)[C@@H]1O (stereo partly drawn) [α-D-Glcp-(1→2)-[β-D-Galp-(1→4)-]D-Glcp], the “Increase of relative abundance of Bifidobacterium bacteria compared with kojibiose” value (Bifidobacterium bacteria; all samples of the two subjects, comparison with kojibiose) was “more significantly increased”, the “Change in relative abundance of Bifidobacterium bacteria” value (Bifidobacterium bacteria) was “increased” and the “Change in relative abundance of Parabacteroides bacteria” value (Parabacteroides bacteria [1]) was “increase”. The “Change in relative abundance of Parabacteroides bacteria (genus level)” value (Parabacteroides bacteria [2]) was “significant increase”, the “Change in relative abundance of species indicated as “Parabacteroides_” (judged Parabacteroides distasonis)” value [3] was “significant increase; also recorded: significantly increased” and the “Product formed by lactase treatment” value (lactase) was “formation of kojibiose”.
